Consider five compounds from ChEMBL document CHEMBL5465560, “Selectivity Literature for EUbOPEN Chemogenomic Library” (2024).

Experiment [1] deals with T1, Serine/threonine-protein kinase TAO2 (Homo sapiens) (UniProt Q9UL54).
T1 sequence (whole entry): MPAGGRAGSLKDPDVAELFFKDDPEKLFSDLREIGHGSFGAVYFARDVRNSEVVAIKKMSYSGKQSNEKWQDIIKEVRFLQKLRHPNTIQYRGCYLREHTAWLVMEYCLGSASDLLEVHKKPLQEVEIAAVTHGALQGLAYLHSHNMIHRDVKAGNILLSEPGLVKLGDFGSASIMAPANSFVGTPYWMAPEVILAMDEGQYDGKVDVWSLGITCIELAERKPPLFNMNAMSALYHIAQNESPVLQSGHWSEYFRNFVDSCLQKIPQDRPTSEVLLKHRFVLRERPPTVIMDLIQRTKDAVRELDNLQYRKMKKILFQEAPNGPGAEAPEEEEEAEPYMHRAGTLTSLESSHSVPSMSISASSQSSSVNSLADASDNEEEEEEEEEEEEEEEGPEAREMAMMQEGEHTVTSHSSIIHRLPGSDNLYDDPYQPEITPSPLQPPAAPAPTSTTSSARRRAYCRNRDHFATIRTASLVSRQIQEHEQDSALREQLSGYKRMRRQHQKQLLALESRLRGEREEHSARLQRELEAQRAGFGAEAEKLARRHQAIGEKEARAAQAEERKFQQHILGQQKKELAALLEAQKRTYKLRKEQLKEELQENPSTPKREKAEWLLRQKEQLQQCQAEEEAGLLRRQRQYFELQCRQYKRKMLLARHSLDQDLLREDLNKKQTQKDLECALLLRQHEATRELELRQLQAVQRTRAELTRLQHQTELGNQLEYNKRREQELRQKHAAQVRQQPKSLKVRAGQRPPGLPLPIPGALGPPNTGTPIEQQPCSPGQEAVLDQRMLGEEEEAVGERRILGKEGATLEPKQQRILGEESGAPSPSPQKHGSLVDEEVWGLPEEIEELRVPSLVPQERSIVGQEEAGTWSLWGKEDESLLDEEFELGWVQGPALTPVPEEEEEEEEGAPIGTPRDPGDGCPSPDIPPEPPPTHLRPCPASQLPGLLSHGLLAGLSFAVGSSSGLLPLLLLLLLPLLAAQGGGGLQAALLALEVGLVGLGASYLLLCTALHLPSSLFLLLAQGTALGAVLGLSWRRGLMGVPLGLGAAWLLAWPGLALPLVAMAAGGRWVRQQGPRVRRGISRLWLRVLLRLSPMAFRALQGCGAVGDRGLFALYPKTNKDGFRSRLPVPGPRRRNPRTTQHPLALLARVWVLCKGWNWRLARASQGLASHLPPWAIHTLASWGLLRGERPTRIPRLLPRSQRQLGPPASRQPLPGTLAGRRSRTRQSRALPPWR
In words: Selectivity interaction (Ambit KINOMEscan and KiNATiv profiling in Jurkat cells) EUB0000090b TAOK2. Particulars: at 1 µM. The experiment is classed as cell-based.

Experiment [2] addresses Serine/threonine-protein kinase 32C (Homo sapiens) (UniProt Q86UX6). Nature of the experiment: Selectivity interaction (KinomeScan (DiscoverX)) EUB0000655a STK32C. Conditions: at 10 µM.
The target in experiment [3] is G protein-coupled receptor kinase 4 (Homo sapiens) (UniProt P32298). Nature of the experiment: Selectivity interaction (KinomeScan (DiscoverX)) EUB0000695a GRK4. Particulars: at 100 nM.
Chain of G protein-coupled receptor kinase 4 (Homo sapiens) (P32298 whole entry, looked up): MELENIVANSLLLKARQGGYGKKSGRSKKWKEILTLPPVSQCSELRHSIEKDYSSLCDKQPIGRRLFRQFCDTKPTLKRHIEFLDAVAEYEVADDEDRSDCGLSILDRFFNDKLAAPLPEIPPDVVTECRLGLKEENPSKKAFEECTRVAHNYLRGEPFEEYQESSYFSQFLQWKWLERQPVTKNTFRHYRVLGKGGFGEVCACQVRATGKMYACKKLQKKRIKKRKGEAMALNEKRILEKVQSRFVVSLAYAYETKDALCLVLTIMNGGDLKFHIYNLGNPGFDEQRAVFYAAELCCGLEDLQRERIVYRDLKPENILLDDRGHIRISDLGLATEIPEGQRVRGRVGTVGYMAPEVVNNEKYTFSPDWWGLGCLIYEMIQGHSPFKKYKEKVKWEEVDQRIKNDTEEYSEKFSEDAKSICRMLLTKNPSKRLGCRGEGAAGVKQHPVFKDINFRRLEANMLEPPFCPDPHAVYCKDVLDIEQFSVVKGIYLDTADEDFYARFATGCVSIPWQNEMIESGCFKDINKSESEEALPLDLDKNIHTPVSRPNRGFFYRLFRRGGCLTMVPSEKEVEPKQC
Experiment [4] concerns the target Insulin-like growth factor 1 receptor (Homo sapiens, UniProt P08069). Nature of the experiment: Selectivity interaction (SelectScreen profiling (Invitrogen)) EUB0000607a IGF1R. Particulars: at 2 µM.
The target in experiment [5] is T2, Inhibitor of nuclear factor kappa-B kinase subunit epsilon (Homo sapiens) (UniProt Q14164).
T2 sequence (whole entry): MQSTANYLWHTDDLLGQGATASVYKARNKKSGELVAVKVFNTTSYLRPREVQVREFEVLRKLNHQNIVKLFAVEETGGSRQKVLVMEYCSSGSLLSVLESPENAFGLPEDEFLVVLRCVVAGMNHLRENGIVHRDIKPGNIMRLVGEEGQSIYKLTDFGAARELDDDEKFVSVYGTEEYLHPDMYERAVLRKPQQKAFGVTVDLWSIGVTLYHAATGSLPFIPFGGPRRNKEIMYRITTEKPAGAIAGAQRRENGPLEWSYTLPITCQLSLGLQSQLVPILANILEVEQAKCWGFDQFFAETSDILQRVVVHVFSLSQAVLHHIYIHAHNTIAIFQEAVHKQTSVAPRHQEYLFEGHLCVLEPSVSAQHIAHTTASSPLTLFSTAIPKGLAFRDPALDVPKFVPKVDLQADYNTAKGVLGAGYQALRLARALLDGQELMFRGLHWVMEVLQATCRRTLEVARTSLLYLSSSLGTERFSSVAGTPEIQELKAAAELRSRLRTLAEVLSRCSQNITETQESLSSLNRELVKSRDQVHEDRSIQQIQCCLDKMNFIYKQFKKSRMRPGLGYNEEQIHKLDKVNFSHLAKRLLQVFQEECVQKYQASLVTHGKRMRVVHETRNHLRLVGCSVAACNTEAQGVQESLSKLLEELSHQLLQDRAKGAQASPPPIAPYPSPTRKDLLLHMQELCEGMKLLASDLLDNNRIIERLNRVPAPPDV
In words: Selectivity interaction (ActivX KiNativ screen (ex vivo kinase selectivity in human PBMCs)) EUB0001619a IKBKE. The experiment is classed as cell-based. Particulars: PBMC, at 1 µM.

Chain of Insulin-like growth factor 1 receptor (P08069 31-736 limits assumed): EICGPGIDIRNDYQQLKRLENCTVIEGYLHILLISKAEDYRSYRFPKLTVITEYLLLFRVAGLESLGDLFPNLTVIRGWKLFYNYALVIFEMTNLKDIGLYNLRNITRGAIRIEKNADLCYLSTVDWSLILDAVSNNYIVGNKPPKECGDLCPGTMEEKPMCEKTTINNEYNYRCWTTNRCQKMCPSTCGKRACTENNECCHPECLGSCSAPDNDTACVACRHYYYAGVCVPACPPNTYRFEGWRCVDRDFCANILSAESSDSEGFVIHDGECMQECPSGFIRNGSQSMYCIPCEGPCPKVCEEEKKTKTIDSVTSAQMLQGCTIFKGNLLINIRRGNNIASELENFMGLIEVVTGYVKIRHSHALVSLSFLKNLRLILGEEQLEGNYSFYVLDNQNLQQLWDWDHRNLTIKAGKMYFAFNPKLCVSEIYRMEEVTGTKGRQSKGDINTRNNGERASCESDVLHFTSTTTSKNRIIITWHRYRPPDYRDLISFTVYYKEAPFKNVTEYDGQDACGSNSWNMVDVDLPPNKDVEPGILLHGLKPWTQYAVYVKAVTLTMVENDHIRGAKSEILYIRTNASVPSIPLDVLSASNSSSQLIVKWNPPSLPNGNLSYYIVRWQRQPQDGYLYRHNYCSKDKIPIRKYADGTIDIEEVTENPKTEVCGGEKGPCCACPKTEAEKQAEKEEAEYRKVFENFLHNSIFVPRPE
Chain of Insulin-like growth factor 1 receptor (P08069 741-1367 limits assumed): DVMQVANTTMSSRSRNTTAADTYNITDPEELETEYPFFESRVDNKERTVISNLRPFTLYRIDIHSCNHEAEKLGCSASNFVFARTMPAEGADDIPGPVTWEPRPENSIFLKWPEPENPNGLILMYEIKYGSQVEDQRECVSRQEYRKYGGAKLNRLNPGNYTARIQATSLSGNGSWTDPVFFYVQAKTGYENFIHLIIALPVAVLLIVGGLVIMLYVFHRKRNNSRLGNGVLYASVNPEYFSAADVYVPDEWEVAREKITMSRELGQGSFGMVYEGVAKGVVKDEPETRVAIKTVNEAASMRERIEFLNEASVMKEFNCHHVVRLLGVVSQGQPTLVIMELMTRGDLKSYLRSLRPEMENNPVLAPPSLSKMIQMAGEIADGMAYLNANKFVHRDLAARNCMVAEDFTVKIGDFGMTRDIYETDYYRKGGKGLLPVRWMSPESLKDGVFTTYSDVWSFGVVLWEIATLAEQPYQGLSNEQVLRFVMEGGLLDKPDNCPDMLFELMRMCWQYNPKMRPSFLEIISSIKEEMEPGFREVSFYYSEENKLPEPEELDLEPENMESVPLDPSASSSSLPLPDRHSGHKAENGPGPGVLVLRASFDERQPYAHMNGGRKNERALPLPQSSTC
Chain of Serine/threonine-protein kinase 32C (Homo sapiens) (Q86UX6 whole entry): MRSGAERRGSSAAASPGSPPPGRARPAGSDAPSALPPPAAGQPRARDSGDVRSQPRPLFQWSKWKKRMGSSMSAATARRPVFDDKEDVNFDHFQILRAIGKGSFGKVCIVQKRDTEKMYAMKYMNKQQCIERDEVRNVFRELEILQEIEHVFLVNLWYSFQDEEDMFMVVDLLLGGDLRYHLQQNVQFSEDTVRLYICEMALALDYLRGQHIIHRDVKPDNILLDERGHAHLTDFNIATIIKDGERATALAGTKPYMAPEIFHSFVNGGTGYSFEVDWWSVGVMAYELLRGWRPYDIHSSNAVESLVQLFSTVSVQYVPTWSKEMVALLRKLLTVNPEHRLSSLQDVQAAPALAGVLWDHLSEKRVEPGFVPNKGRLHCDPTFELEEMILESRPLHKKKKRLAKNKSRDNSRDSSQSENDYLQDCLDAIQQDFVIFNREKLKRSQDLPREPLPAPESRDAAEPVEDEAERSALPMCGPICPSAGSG

`CN(C)C/C=C/C(=O)Nc1ccc(C(=O)N2CCCC(Nc3ncc(Cl)c(-c4c[nH]c5ccccc45)n3)C2)cc1` (stereo not given) returned a % of control in experiment [1] of 50%.
With `CN(C)CCOc1ccc(-c2nc(-c3ccncc3)c(-c3ccc4c(c3)CC/C4=N\O)[nH]2)cc1`, the % of control in experiment [2] turned out to be 100%.
Turning to `Cc1cc(F)c(C(=O)Nc2cccc(-c3nncn3C(C)C)n2)cc1-n1cnc(C2CC2)c1`, the % of control in experiment [3] was found to be 100%.
As to `CNC(=O)Nc1ccc(-c2nc(N3CC4CCC(C3)O4)c3cnn(C4CCC5(CC4)OCCO5)c3n2)cc1`, the % of inhibition in experiment [4] turned out to be 1%.
In turn, `N#Cc1cccc(-c2c[nH]c3ncnc(N4CCOCC4)c23)c1` came in with a % of inhibition in experiment [5] of 7%.
